The values that follow come from PMC1481600 (AIDS Research and Therapy, 2006).

pEC50: −log10 of the molar value. Like-named read-outs stand apart in the source and are kept apart here. Non-standard residues stand in square brackets, D forms with d. Residues, ends and D or L forms follow the SMILES beside them. Groups on a side chain read outwards from the residue. *: point of attachment. Biotin = O=C1N[C@H]2[C@H](CS[C@H]2CCCCC(=O)*)N1; Ahx = NCCCCCC(=O)O

One series can be described thus: in vitro. The note with it: human.
For series [1], the system named is HIV-1 strain LAV-Vbu3.
The subject of series [2] is HIV-1 strain LAV-Vbu3. Description: microbe, parasite or virus in culture. To be noted: Human immunodeficiency virus 1, MT2, 120 h, read-out: EC50 (anti-HIV activity).
Details of series [3]: method as in PMID 15546199. To be noted: spiked plasma, 37°C; cited from earlier work.
On the set-up of series [4]: method as in PMID 15546199. To be noted: PBS pH 7.4, 37°C; cited from earlier work.

In turn, `CC(=O)N[C@@H](CCCNC(=N)N)C(=O)N[C@@H](CCCCN)C(=O)N[C@@H](CCCCN)C(=O)N[C@@H](CCCNC(=N)N)C(=O)N[C@@H](CCCNC(=N)N)C(=O)N[C@@H](CCC(N)=O)C(=O)N[C@@H](CCCNC(=N)N)C(=O)N[C@@H](CCCNC(=N)N)C(=O)N[C@@H](CCCNC(=N)N)C(N)=O` [L-Tat9, reference compound] gave a CC50 in “in vitro” of 53.8 µM. In addition, the “Therapeutic Index (LC50/EC50)” value with HIV-1 strain LAV-Vbu3 [1] (listed as L-form of Tat9) is listed as “poorest therapeutic index”; in the series on HIV-1 strain LAV-Vbu3 [1] (strain LAV-Vbu3), 1. Besides, the pEC50 with HIV-1 strain LAV-Vbu3 [1] (read-out: EC50 (anti-HIV activity), MT-2 cells infected with HIV-1 strain LAV-Vbu3, MOI 0.01, MTT, 5 days) is 4.29.
In the series “in vitro”, `CC(=O)N[C@H](CS)C(=O)N[C@H](CCCCNC(=O)CCCCCNC(=O)CCCC[C@@H]1SC[C@@H]2NC(=O)N[C@@H]21)C(=O)N[C@H](CCCNC(=N)N)C(=O)N[C@H](CCCNC(=N)N)C(=O)N[C@H](CCCNC(=N)N)C(=O)N[C@H](CCC(N)=O)C(=O)N[C@H](CCCNC(=N)N)C(=O)N[C@H](CCCNC(=N)N)C(=O)N[C@H](CCCCN)C(=O)N[C@H](CCCCN)C(=O)N[C@H](CCCNC(=N)N)C(N)=O` [R.I.CK(biotin)-Tat9] (Ac-[dC][dK]([Ahx-Biotin])[dR][dR][dR][dQ][dR][dR][dK][dK][dR]-NH2) gave a CC50 of 46.8 µM. For the same compound, in the series with HIV-1 strain LAV-Vbu3 [1] (MT-2 cells infected with HIV-1), the “anti-HIV potency relative to L-Tat9 (times more potent)” value came to 2850 fold and the “anti-HIV potency relative to RI-Tat9 (times more potent)” value stood at 47 fold. For the same compound, the “R (ratio of the EC50 of the bioconjugate to that of its parent drug R.I.CK-Tat9 or SQV)” value in the series on HIV-1 strain LAV-Vbu3 [1] (MT-2 cells, HIV-1 LAV-Vbu3, MOI 0.01) is given as 0.02. Further, in the series on HIV-1 strain LAV-Vbu3 [1] (strain LAV-Vbu3), the pEC50 was 7.74 and the “Therapeutic Index (LC50/EC50)” value is 2600.
In “in vitro”, `CC(=O)N[C@H](CS)C(=O)N[C@H](CCCCN)C(=O)N[C@H](CCCNC(=N)N)C(=O)N[C@H](CCCNC(=N)N)C(=O)N[C@H](CCCNC(=N)N)C(=O)N[C@H](CCC(N)=O)C(=O)N[C@H](CCCNC(=N)N)C(=O)N[C@H](CCCNC(=N)N)C(=O)N[C@H](CCCCN)C(=O)N[C@H](CCCCN)C(=O)N[C@H](CCCNC(=N)N)C(N)=O` [R.I.CK-Tat9, N-acetyl-ckrrrqrrkkr-NH2] (Ac-[dC][dK][dR][dR][dR][dQ][dR][dR][dK][dK][dR]-NH2) had a CC50 of 29.8 µM. Also, in the series on HIV-1 strain LAV-Vbu3 [1] (MT-2 cells infected with HIV-1), the “anti-HIV potency relative to L-Tat9 (times more potent)” value was 60 fold. In the series with HIV-1 strain LAV-Vbu3 [1] (strain LAV-Vbu3), the pEC50 was 6.07 and the “Therapeutic Index (LC50/EC50)” value stood at 35.
Regarding `CC(C)(C)NC(=O)[C@@H]1C[C@@H]2CCCC[C@@H]2CN1C[C@@H](O)[C@H](Cc1ccccc1)NC(=O)[C@H](CC(N)=O)NC(=O)c1ccc2ccccc2n1` [SQV(MeSO3H) (control), saquinavir, reference compound], the pEC50 with HIV-1 strain LAV-Vbu3 [2] was 7.82. In the series “in vitro”, this compound returned a CC50 at 5 days of 25 µM. The “Therapeutic Index (LC50/EC50)” value in the series with HIV-1 strain LAV-Vbu3 [1] (MT-2 cells, LC50 in uninfected cells / EC50 in infected cells) is 1667.
As to `CC(C)(C)NC(=O)[C@@H]1C[C@@H]2CCCC[C@@H]2CN1C[C@@H](OC(=O)C(N)CS)[C@H](Cc1ccccc1)NC(=O)[C@H](CC(N)=O)NC(=O)c1ccc2ccccc2c1` (stereo partly shown) [SQV-Cys ester], the “half-life of release of active SQV (ester bond)” value in series [3] is reported as 0.9 h; in series [4] it was 14 h.

For orientation: pEC50 means the EC50 on a negative log10 scale, so that one unit is a factor of ten.
